Source: PMC6891315, “Synthesis of Novel Farnesoid X Receptor Agonists and Validation of Their Efficacy in Activating Differentiation of Mouse Bone Marrow-Derived Mesenchymal Stem Cells into Osteoblasts” (Molecules, 2019)

Columns and labels:
FXR = details: cited from earlier work
ST-2 MSCs [1] = experiment: Cell toxicity (WST, Cell Counting Kit-8) assay; format: cell-based, mouse; details: 12 days; 0–10 μM CDCA, 0–5 μM GW4064, 0–5 μM 3 or 4
Protocol: The cells were washed twice with PBS, and cell viability was determined using Cell Counting Kit-8 (Dojindo Molecular Technologies, Kumamoto, Japan) according to the protocols provided by the supplier. The cell viability (%) was shown relative to the vehicle-treated cells (0 μM).

[2] = system: FXR, BSEP and SHP gene expression in ST-2 MSCs; experiment: qPCR of FXR and FXR-target genes (BSEP, SHP) during osteoblast differentiation; format: cell-based, mouse; details: for mRNA expression level of FXR: with BMP-2 50 ng/mL, 6 and 12 days, 10 μM CDCA, 5 μM GW4064, 5 μM 3 or 4, vs BMP-2-treated cells
Protocol: (§1) Mouse ST-2 MSCs were obtained from RIKEN BioResource Research Center (Tsukuba, Japan) and cultured in RPMI-1640 medium (Sigma) containing 10% (v/v) fetal calf serum and antibiotics (100 units/mL penicillin and 100 μg/mL streptomycin; Nacalai Tesque) at 37 °C in an atmosphere of 5% CO2. The ST-2 MSCs were allowed to differentiate into osteoblasts for 6 or 12 days in RPMI-1640 medium with BMP-2 (50 ng/mL). The medium was changed every 3 days.
(§2) RNAiso Plus was used to isolate total RNA (Takara-Bio, Kyoto, Japan). Subsequently total RNA (1 μg) was reverse-transcribed to cDNAs using ReverTra Ace reverse transcriptase (Toyobo, Osaka, Japan) and random hexamer (Takara-Bio). Thereafter, the mRNA levels were determined by qPCR analysis using a Power SYBR Green Master Mix (Thermo Fisher Scientific) in an Applied Biosystems 7500 Real Time PCR System (Thermo Fisher Scientific). The relative mRNA expression levels were determined using the 2^−ΔΔCT method and normalized to that of glyceraldehyde-3-phosphate dehydrogenase (GAPDH).

ST-2 MSCs [3] = experiment: ALP staining and ALP activity in BMP-2-induced osteoblast differentiation; format: cell-based, mouse; details: for staining and activity of ALP: with BMP-2 50 ng/mL, 6 or 12 days, 10 μM CDCA, 5 μM GW4064, 5 μM 3 or 4, vs BMP-2-treated cells
Protocol: as §1
The ST-2 MSCs were allowed to differentiate into osteoblasts for 12 days in RPMI-1640 medium with BMP-2 (50 ng/mL) and one of FXR agonists together with or without GS (25 μM). Then, the cells were washed twice with PBS and fixed with 10% (v/v) formaldehyde in PBS at 25 °C for 10 min. The cells were again washed with PBS, and incubated with the staining solution (0.1 mg/mL naphthol AS-MX phosphate and 0.6 mg/mL Fast-blue BB salt in 0.1 M Tris-Cl, pH 8.8) at 25 °C for 30 min. After removing the staining solution, the cells were washed with PBS and visualized under a microscope (CKX-41, Olympus, Tokyo, Japan).
The ALP activity was measured using LabAssay ALP (FUJIFILM Wako Pure Chemical) according to the manufacturer’s protocols. Protein concentrations were measured using a Pierce BCA Protein Assay Kit (Thermo Fisher Scientific).

[4] = system: ALP gene expression in ST-2 MSCs; experiment: qPCR of ALP gene during osteoblast differentiation; format: cell-based, mouse; details: for ALP gene expression (mRNA level): with BMP-2 50 ng/mL, 6 or 12 days, 10 μM CDCA, 5 μM GW4064, 5 μM 3 or 4, vs BMP-2-treated cells
Protocol: as §1, §2

[5] = system: RUNX2, COL1A1 and OCN gene expression in ST-2 MSCs; experiment: qPCR of osteogenic genes (RUNX2, COL1A1, OCN) during osteoblast differentiation; format: cell-based, mouse; details: for expression of RUNX2, COL1A1 and OCN genes: with BMP-2 50 ng/mL, 10 μM CDCA, 5 μM GW4064, 5 μM 3 or 4, vs BMP-2-treated cells
Protocol: as §1, §2

LXRα = target: T1, LXRα (Homo sapiens, UniProt Q13133); experiment: LXRα response element-driven luciferase reporter assay in COS-7 cells; details: 1 μM
T1 sequence (Q13133 1-447): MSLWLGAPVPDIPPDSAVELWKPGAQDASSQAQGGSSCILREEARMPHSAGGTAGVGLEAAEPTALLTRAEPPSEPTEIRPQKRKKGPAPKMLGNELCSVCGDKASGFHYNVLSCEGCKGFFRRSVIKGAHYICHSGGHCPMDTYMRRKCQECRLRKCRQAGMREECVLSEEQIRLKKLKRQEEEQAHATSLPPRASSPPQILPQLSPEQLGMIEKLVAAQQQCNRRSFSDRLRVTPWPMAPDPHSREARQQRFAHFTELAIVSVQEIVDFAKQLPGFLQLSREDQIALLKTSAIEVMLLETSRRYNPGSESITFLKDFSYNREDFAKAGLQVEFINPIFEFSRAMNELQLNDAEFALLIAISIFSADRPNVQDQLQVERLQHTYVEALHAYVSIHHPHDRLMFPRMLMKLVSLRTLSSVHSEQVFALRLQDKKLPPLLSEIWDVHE
Protocol: Luciferase reporter assay was performed as described previously [53]. Briefly, human hepatoma Huh-7 (for FXR, RARα, and RXRα), transformed African green monkey kidney fibroblast COS-7 (for LXRα/β and PPARα/γ/δ), or human embryonic kidney HEK293 (for VDR and TGR5) cells were transfected with each of plasmids for nuclear receptor and nuclear receptor-response element-driven luciferase gene. […] The luciferase activity was measured as described previously [53].

## CC[C@H]1[C@@H](O)[C@@H]2[C@H](CC[C@]3(C)[C@@H]([C@H](C)CCC(=O)O)CC[C@@H]23)[C@@]2(C)CC[C@@H](O)C[C@@H]12 [6-ECDCA, 6α-ethylchenodeoxycholic acid]
FXR
  potency relative to CDCA: about 100 fold

## C[C@H](CCC(=O)O)[C@H]1CC[C@H]2[C@@H]3[C@H](O)C[C@@H]4C[C@H](O)CC[C@]4(C)[C@H]3CC[C@]12C [CDCA, chenodeoxycholic acid]
ST-2 MSCs [1]
  cytotoxicity (cell viability, WST assay): No cytotoxicity
[2]
  mRNA expression level of FXR: elevated
ST-2 MSCs [3]
  staining and activity of ALP: elevated
[4]
  ALP gene expression (mRNA level): elevated
[5]; 6 days
  expression of RUNX2, COL1A1 and OCN genes: further enhanced

## CC(C)c1onc(-c2c(Cl)cccc2Cl)c1COc1ccc(-c2nc3ccc(C(=O)O)cc3n2C)cc1 [FXR agonist 1]
LXRα
  LXRα-response element-driven luciferase activity: increased

## CC(C)c1onc(-c2c(Cl)cccc2Cl)c1COc1ccc(-c2nc3cc(C(=O)O)ccc3n2C)cc1 [FXR agonist 2]
LXRα
  LXRα-response element-driven luciferase activity: increased

## CC(C)c1onc(-c2c(Cl)cccc2Cl)c1COc1ccc(-c2nc3ccc(C(=O)O)cc3n2C)cc1Cl [FXR agonist 3]
ST-2 MSCs [1]
  cytotoxicity (cell viability, WST assay): No cytotoxicity
[2]
  mRNA expression level of FXR: elevated
ST-2 MSCs [3]; 6- or 12-days-differentiated ST-2 MSCs, 5 μM
  ability to enhance ALP staining and activity compared with GW4064: comparable to that of GW4064
ST-2 MSCs [3]
  staining and activity of ALP: enhanced
[4]; 5 μM, with BMP-2
  ability to enhance ALP gene expression compared with GW4064: comparable to that of GW4064
[4]
  ALP gene expression (mRNA level): enhance
[5]; 6 days, 5 μM, with BMP-2
  increase of RUNX2, COL1A1 and OCN expression compared with GW4064: comparable to that of GW4064
[5]; 6 days
  expression of RUNX2, COL1A1 and OCN genes: elevated

## CC(C)c1onc(-c2c(Cl)cccc2Cl)c1COc1ccc(-c2nc3ccc(C(=O)O)cc3n2C)c(Cl)c1 [FXR agonist 4, 2-[2-Chloro-4-[[3-(2,6-dichlorophenyl)-5-isopropyl-isoxazol-4-yl]methoxy]phenyl]-3-methyl-benzimidazole-5-carboxylic acid]
ST-2 MSCs [1]
  cytotoxicity (cell viability, WST assay): No cytotoxicity
[2]
  mRNA expression level of FXR: elevated
ST-2 MSCs [3]
  staining and activity of ALP: enhanced
[4]
  ALP gene expression (mRNA level): enhance
[5]; 6 days
  expression of RUNX2, COL1A1 and OCN genes: elevated

## C/C=C1\C(=O)C[C@H]2[C@@H]3CCC4=CC(=O)CC[C@]4(C)[C@H]3CC[C@]12C [GS, (Z)-guggulsterone]
[2]; co-treatment with 25 μM GS
  effect on FXR agonist-induced BSEP and SHP expression: suppressed
  effect on FXR agonist-induced FXR gene expression: repressed
ST-2 MSCs [3]; co-treatment with 25 μM GS
  effect on FXR agonist-induced staining and activity of ALP: suppressed
[4]; co-treatment with 25 μM GS
  effect on FXR agonist-induced ALP gene expression: repressed
[5]; co-treatment with 25 μM GS
  effect on novel FXR agonist-induced expression of osteogenic genes: repressed

## CC(C)c1onc(-c2c(Cl)cccc2Cl)c1COc1ccc(/C=C/c2cccc(C(=O)O)c2)c(Cl)c1 [GW4064]
ST-2 MSCs [1]
  cytotoxicity (cell viability, WST assay): No cytotoxicity
[2]
  mRNA expression level of FXR: elevated
ST-2 MSCs [3]
  staining and activity of ALP: elevated
[4]
  ALP gene expression (mRNA level): elevated
[5]; 6 days
  expression of RUNX2, COL1A1 and OCN genes: further enhanced
